Measured values: US8987486B2, “Trans-2-decenoic acid derivative and pharmaceutical agent containing the same” (Nagoya Industrial Science Research Institute, priority 2010, dated 2015)

What was measured:
[1] = system: male mice injected with corticosterone; experiment: Tail suspension test in mice administered corticosterone; assay type: in vivo; conditions: after two weeks, control 141.15 seconds
Method: Corticosterone suspended in oil was hypodermically injected to male mice of seven weeks age (n=3 to 5) in a dose of […] every day for three weeks. At the same time, the compound of the present invention dissolved in PBS or in a PBS solvent containing DMSO, etc. was orally administered every day for three weeks. After one, two and three week(s), the suppressive effect for depressive symptom was evaluated by a tail suspension test in the same manner as in the above Test Example 7. Incidentally, the test for significance was conducted by a Student's t-test.

MAP kinase = experiment: Activation (phosphorylation) of MAP kinase by Western immunoblotting in cultured cerebral cortex nerve cells; assay type: cell-based, rat; design: pMAPK/MAPK: unit not given here; conditions: for Ratio of pMAPK to MAPK: Test Example 6, relative to control (0 μg/mL = 1.0)
Method: With regard to the compound 1 ((E)-2-(dimethylamino)-ethyl dec-2-enoate), activation of MAP kinase was measured as follows by a Western immunoblotting.
Nerve cells were dispersed from cerebral cortex of a fetal rat of 17 days age and said nerve cells were cultured for one day in a Dulbecco-modified Eagle medium (DMEM) containing 5% fetal bovine serum. The culture medium was exchanged with a serum-free medium (B27 supplement-added Neurobasal; Invitrogen) and the nerve cells were cultured at the density of 20,000 to 40,000 cells per cm^2 in a culture dish coated with polyornithine.
After three days, the compound 1 was added and the culture was continued for 30 minutes. After that, the cells were recovered on ice using a solution containing a phosphatase inhibitor where Tris-HCl buffer was a base. Protein concentration of the resulting cell extract was quantified using a BCA Protein Assay Kit (Takara Bio KK) and a certine amount of protein (3 μg for the measurement of MAP kinase and 5 μg for the measurement of phosphorylated MAP kinase) was subjected to polyacrylamide gel electrophoresis. The protein was transcribed from the gel after the electrophoresis to a PVDF membrane and a Western immunoblotting was carried out using each of an anti-MAP kinase antibody (Cell Signaling Technology) and an anti-phosphorylated MAP kinase antibody (Cell Signaling Technology) of the primary antibody.
After that, the reaction with an alkaline phosphatase-labeled anti-rabbit IgG antibody (Promega) of the secondary antibody was carried out so that the enzymatic activity was colorized whereupon the MAP kinase and the phosphorylated MAP kinase were measured.
Incidentally, the compound 1 was adjusted to the concentrations of 10 μg/ml, 30 μg/ml, 100 μg/ml and 300 μg/ml by dissolving in 0.1% DMSO. With regard to the control, 0.1% DMSO was added.
Intensity of the concentration of the above-obtained band of the gel subjected to electrophoresis was calculated and quantified using Image J (K. K. Bioarts). The numerical value for the MAP kinase using the compound 1 was divided by the numerical value for the MAP kinase of the control and, further, the numerical value for the phosphorylated MAP kinase using the compound 1 was divided by the numerical value for the phosphorylated MAP kinase of the control whereupon the ratio of the MAP kinase using the compound 1 to the control and the ratio of the phosphorylated kinase using the compound 1 to the control were determined.
After that, the resulting ratio of the phosphorylated MAP kinase to the control was divided by the resulting ratio of the MAP kinase to the control to determine the ratio of the phosphorylated MAP kinase to the MAP kinase (cf. Table 5). In Table 5, “MAPK” means a MAP kinase and “pMAPK” means a phosphorylated MAP kinase. “10”, “30”, “100” and “300” in Table 5 show the examples where 10 μg/ml, 30 μg/ml, 100 μg/ml and 300 μg/ml of the compound 1 were added.
MAP kinase and phosphorylated MAP kinase were measured for the compound 6 ((E)-2-(diethylamino)ethyl dec-2-enoate) and the compound 13 ((E)-2-(2-(diethylamino)ethoxy)ethyl dec-2-enoate) by the same method as in Test Example 1.
Each of the compounds 6 and 13 was dissolved in 0.1% DMSO to adjust to the concentration of 250 μg/ml. With regard to the control, 0.1% DMSO was added. With regard to the concentration of the resulting band of the gel subjected to electrophoresis, its intensity was calculated by the same method as in Test Example 1 using Image J (K. K. Bioarts) and the ratio of the phosphorylated MAP kinase to the control was divided by the resulting ratio of the MAP kinase to the control whereupon the ratio of the phosphorylated MAP kinase to the MAP kinase was determined (cf. Table 6).
With regard to the compound of the present invention, its activation for MAP kinase was measured by the same manner as in Test Example 1.
Each compound was dissolved in 0.1% DMSO to adjust to the concentrations of 30 μg/ml, 60 μg/ml, 125 μg/ml and 250 μg/ml. […]

[2] = 10 μg/ml, 30 minutes, fetal rat cerebral cortex nerve cells
[3] = 30 μg/ml, 30 minutes, fetal rat cerebral cortex nerve cells
[4] = 100 μg/ml, 30 minutes, fetal rat cerebral cortex nerve cells

SMILES	immobility time (tail suspension test) ([1]; 300 μg/kg orally every day) [s]	Ratio of pMAPK to MAPK (MAP kinase; 30 μg/mL)	Ratio of pMAPK to MAPK (MAP kinase; 60 μg/mL)	Ratio of pMAPK to MAPK (MAP kinase; 125 μg/mL)	also measured
CCCCCCC/C=C/C(=O)NCCN(C)C [Compound 36, (E)-N-2-(dimethylamino)ethyl dec-2-enamide]	41.63	1.6	5.1	0.5	–
CCCCCCC/C=C/C(=O)NCCN(CC)CC [Compound 37, (E)-N-2-(diethylamino)ethyl dec-2-enamide]	–	–	3.4	3.4	Ratio of pMAPK to MAPK (MAP kinase; 250 μg/mL): 4.9
CCCCCCC/C=C/C(=O)OCCN(CC)CC [Compound 6, (E)-2-(diethylamino)ethyl dec-2-enoate]	60.37	–	–	–	pMAPK/MAPK/Control (MAP kinase; 250 μg/ml, Test Example 2, control = 1.00): 1.72
CCCCCCC/C=C/C(=O)OCCN(C)C [Compound 1, (E)-2-(dimethylamino)ethyl dec-2-enoate]	–	–	–	–	pMAPK/MAPK (MAP kinase; [2]): 674; pMAPK/MAPK/Control (MAP kinase; [2]): 1.38; pMAPK/MAPK (MAP kinase; [3]): 1071; pMAPK/MAPK/Control (MAP kinase; [3]): 2.20; pMAPK/MAPK (MAP kinase; [4]): 1043; pMAPK/MAPK/Control (MAP kinase; [4]): 2.14; pMAPK/MAPK (MAP kinase; 300 μg/ml, 30 minutes, fetal rat cerebral cortex nerve cells): 2234
CCCCCCC/C=C/C(=O)SCCN(C)C [Compound 55, (E)-S-2-(dimethylamino)ethyl dec-2-enethioate]	–	4.6	8.6	16.0	immobility time (tail suspension test) ([1]; 1,500 μg/kg orally every day): 86.71 s
